Source: article PMC6476888, “Design and synthesis of anticancer 1-hydroxynaphthalene-2-carboxanilides with a p53 independent mechanism of action” (Scientific Reports, 2019)

Tests used:
[1] = system: p53/p21 system in the HCT116 cells; assay: Western blot of p53/p21 activation; type: cell-based, human
Method: Further exploration of the cell death model was performed by a western blot analysis of protein activation in response to incubation with the tested compound (Figs 6, 7). […] The proapoptotic activation of the p53/p21 system was noticeable after the first 12 hours and then became stronger after 24 h. This effect was not observed in the case of the p53 null cells, which were unable to synthesize this protein.
The HCT116 cells were seeded in 3-cm Petri dishes (Nunc) at a density of 0.5·10^6 cells/well and incubated overnight. […] The cells were harvested by trypsinization and washed with cold PBS. Next, the cells were centrifuged and suspended in an RIPA buffer (Thermo-Fisher Scientific) containing Halt Protease Inhibitor Cocktail (Thermo-Fisher Scientific), Halt Phosphatase Inhibitor Cocktail (Thermo-Fisher Scientific) along with 0.5 M EDTA and lysed for 20 min on ice. Then, the lysates were sonicated, centrifuged at 10,000 rpm for 10 min at 4 °C and the supernatants were collected for further analysis. The protein concentration was determined using a Micro BCA™ Protein Assay Kit (Thermo-Fisher Scientific, Waltham, MA, USA c) according to the manufacturer’s instructions. Equal amounts of the proteins (20 μg) were electrophoresed on SDS-Page gels and transferred onto nitrocellulose membranes. The membranes were blocked in 5% non-fat milk prepared in PBS containing 0.1% Tween-20 (TPBS) for 1 h. After blocking, the membranes were incubated with specific primary antibodies: p21^Waf1/Cip1, p53, cytochrome c, caspase-8, caspase-9, AIF, PARP, GAPDH and β-Actin overnight at 4 °C, and then washed and incubated with horseradish peroxidase (HRP)-conjugated secondary antibodies for 1 h at room temperature. All of the antibodies were purchased from CellSignaling (Danvers, MA, USA) and were diluted 1:1000 in 5% milk in TPBS. Finally, the membranes were washed and incubated with a SuperSignal™ West Pico Chemiluminescent Substrate (Thermo-Fisher Scientific). The chemiluminescence signals were captured using a ChemiDoc™ XRS+ System (Bio-Rad Laboratories, Hercules, CA, USA). The experiments were performed at least three times. Densitometric analysis was performed using ImageJ 1.41 software (Wayne Rasband, National Institutes of Health, USA).

[2] = system: caspase-8, caspase-9, AIF, cytochrome c, PARP in HCT116 cells; assay: Western blot of proapoptotic proteins; type: cell-based, human; conditions: p53 null cells
Method: These are shown in Figure S5 supplementary information. […] This observation corresponds with the high selectivity of 5s towards the p53^−/− cell line. Moreover, no activation of caspase-8 or AIF was detected after incubation with the tested anilides. Similarly, the cytochrome c level was unaffected. Leakage of cytochrome c from the mitochondria is the first step of caspase-dependent apoptosis, which is often initiated by p53 activation. […] On the other hand, cleavage of PARP as well as a small but evident increase in the PARP level in response to the active compounds was observed. PolyADP-ribose polymerase is the nuclear factor that is responsible for detecting and repairing single strand breaks in DNA[79]. Its inhibition by the cleavage that is induced with caspase-3 is also a classic sign of apoptosis. However, the complex role of this protein is still vague especially in terms of any alternative activation and deactivation factors[80],[81]. Special attention is being paid to alternative ways of cell death for their potential usefulness in designing selectively targeted drugs[82]–[84].
The HCT116 cells were seeded in 3-cm Petri dishes (Nunc) at a density of 0.5·10^6 cells/well and incubated overnight. […] The protein concentration was determined using a Micro BCA™ Protein Assay Kit (Thermo-Fisher Scientific, Waltham, MA, USA c) according to the manufacturer’s instructions. […]

[3] = p53 null cells, after the first 12 hours

SMILES: O=C(Nc1cc(C(F)(F)F)cc(C(F)(F)F)c1Cl)c1ccc2ccccc2c1O [5u]
- p21 protein amount [1, 3]: small, insignificant increase

SMILES: O=C(Nc1ccc(F)c(Cl)c1)c1ccc2ccccc2c1O [5s]
- cleavage of caspases-8 and −9 [2]: some cleavage
- p21 protein amount [1, 3]: small, insignificant increase

SMILES: O=C(Nc1cc(C(F)(F)F)cc(C(F)(F)F)c1)c1ccc2ccccc2c1O [7f]
- p21 protein amount ([1]; either of the lines tested): did not increase p21
